Experiments:
[1] = biological target: Protein cereblon/Bcl-2-like protein 1 (Homo sapiens, UniProt Q07817+Q96SW2); test: PROTAC activity at CRBN/BCL-XL in human MOLT-4 cells assessed as induction of BCL-XL degradation incubated for 16 hrs by Western blot analysis; assay type: cell-based
[2] = biological target: Microtubule-associated protein tau (Homo sapiens, UniProt P10636); test: Binding affinity to N-terminal His-tagged recombinant human Tau40 expressed in Escherichia coli Rosetta (DE3) assessed as dissociation constant incubated for 0.5 hrs by fluorescence polarization assay
Sequence of Microtubule-associated protein tau (P10636 whole entry): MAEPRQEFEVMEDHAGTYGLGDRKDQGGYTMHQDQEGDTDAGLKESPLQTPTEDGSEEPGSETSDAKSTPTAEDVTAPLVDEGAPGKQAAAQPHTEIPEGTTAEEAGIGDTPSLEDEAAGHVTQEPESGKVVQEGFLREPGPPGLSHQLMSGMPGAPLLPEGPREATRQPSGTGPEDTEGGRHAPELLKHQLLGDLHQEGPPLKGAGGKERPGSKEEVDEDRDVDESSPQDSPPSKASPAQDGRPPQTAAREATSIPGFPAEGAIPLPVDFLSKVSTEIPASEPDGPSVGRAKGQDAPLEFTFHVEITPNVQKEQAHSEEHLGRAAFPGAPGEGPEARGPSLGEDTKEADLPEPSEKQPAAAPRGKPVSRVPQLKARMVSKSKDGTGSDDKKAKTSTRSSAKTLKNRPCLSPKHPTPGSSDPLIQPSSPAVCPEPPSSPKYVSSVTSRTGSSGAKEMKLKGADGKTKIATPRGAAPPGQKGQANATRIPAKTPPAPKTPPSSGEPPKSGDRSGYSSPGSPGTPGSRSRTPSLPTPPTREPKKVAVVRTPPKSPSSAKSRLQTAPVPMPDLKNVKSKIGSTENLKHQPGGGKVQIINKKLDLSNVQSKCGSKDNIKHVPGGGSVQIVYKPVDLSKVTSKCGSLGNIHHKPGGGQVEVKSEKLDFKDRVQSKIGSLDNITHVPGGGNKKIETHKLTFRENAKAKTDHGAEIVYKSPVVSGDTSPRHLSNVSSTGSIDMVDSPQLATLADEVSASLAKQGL

Sequence of Protein cereblon/Bcl-2-like protein 1 (Q07817 whole entry): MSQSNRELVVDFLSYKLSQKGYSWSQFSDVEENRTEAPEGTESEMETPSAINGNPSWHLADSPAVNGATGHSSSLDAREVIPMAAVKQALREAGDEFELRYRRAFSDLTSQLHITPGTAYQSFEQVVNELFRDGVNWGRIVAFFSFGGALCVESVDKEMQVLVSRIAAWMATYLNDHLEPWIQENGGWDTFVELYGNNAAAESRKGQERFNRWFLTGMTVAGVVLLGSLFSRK
Sequence of Protein cereblon/Bcl-2-like protein 1 (Q96SW2 whole entry): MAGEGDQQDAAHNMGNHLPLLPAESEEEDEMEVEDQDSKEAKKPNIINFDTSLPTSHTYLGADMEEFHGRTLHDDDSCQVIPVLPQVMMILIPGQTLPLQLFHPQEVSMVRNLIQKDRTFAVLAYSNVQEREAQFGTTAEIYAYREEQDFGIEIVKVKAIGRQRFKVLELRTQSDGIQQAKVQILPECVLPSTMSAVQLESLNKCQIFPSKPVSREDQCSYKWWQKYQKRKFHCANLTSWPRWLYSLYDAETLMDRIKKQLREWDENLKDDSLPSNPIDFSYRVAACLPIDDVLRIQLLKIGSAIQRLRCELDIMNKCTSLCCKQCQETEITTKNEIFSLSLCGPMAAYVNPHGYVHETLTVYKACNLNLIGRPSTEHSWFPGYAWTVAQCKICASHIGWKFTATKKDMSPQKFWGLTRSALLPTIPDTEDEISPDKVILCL

| Structure (SMILES) | EC50 [1] [nM] | Kd [2] [nM] |
| --- | --- | --- |
| O=C1CCC(N2C(=O)c3cccc(NCCOCCOCc4cn(CCCC(=O)N5CCN(CC#Cc6ccc(OCCCc7sc(N8CCc9cccc(C(=O)Nc%10nc%11ccccc%11s%10)c9C8)nc7C(=O)O)c(F)c6)CC5)nn4)c3C2=O)C(=O)N1 (configuration not stated) | 50 | – |
| CC[C@H](C)[C@H](NC(=O)[C@H](Cc1ccc(O)cc1)NC(=O)[C@@H]1CCCN1C(=O)[C@H](C)NC(=O)[C@H](CC(C)C)NC(=O)[C@H](C)NC(=O)[C@H](CO)NC(=O)CNC(=O)[C@H](CO)NC(=O)CNC(=O)CNC(=O)[C@H](CCC(N)=O)NC(=O)[C@H](CCC(=O)O)NC(=O)[C@H](CC(=O)O)NC(=O)[C@H](C)NC(=O)[C@@H](NC(=O)[C@H](C)NC(=O)[C@H](CC(=O)O)NC(=O)[C@H](CCC(N)=O)NC(=O)[C@H](Cc1ccc(O)cc1)NC(=O)[C@H](CCC(N)=O)NC(=O)[C@H](CCC(N)=O)NC(=O)[C@@H](N)Cc1ccc(O)cc1)[C@@H](C)O)C(=O)N1CCC[C@H]1C(=O)N[C@H](CCCNC(=N)N)C(=O)N[C@H](CCCNC(=N)N)C(=O)N[C@H](CCCNC(=N)N)C(=O)N[C@H](CCCNC(=N)N)C(=O)N[C@H](CCCNC(=N)N)C(=O)N[C@H](CCCNC(=N)N)C(=O)N[C@H](CCCNC(=N)N)C(=O)N[C@H](CCCNC(=N)N)C(=O)O | – | 394 |
